The values that follow come from patent US6727275B2, “Pyrrolidinone derivatives” (UCB, S.A./N.V., priority 2001, dated 2004).

In the assay the target is T1, CCR2 (Homo sapiens, UniProt P41597).
T1 sequence (P41597 1-360 isoform P41597-2): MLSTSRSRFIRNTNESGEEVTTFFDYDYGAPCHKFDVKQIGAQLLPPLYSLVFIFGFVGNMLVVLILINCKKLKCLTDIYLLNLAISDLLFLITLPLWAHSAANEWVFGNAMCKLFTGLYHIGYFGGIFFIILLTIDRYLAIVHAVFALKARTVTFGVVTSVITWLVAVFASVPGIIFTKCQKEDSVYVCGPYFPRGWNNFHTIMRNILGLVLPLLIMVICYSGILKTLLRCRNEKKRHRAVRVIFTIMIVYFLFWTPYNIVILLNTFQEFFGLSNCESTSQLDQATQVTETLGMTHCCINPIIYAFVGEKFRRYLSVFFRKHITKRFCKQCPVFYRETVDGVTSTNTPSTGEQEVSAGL
In words: Binding assay: inhibition of 125I-MCP-1 binding to THP-1 cells. Also noted: CCR2 is also expressed in the human monocytic cell line THP-1; endogenous in cells; host or cells: THP-1 (human monocytic cell line), whole cells. As to conditions: THP-1 cells, 0.1 nM 125I-MCP-1, 1 hr at room temperature; read-out: Inhibition of 125I-MCP-1 binding to THP-1 cells, IC50. The procedure: Antagonism of the CCR2 receptor is determined by a binding assay using the human monocytic cell line THP-1. Cells are suspended in assay buffer (RPMI+1% BSA+25 mM HEPES) at 3×10^6 cells/ml and an aliquot (180 μl) added to a 0.5 ml siliconized Eppendorf tube. […] After incubation for 1 hr at room temperature, the cell suspension is centrifuged through oil and the cell pellets counted to quantitate cell-bound ligand. Nonspecific (NS) binding of radioligand is determined by the addition of 100 nM cold MCP-1. Control binding is determined by the addition of buffer without compound.

Consider `CCCC1C(C(C)=O)=C(O)C(=O)N1c1ccc(C)c(C)c1` (racemic) [Compound 74, 4-acetyl-1-(3,4-dimethylphenyl)-3-hydroxy-5-propyl-1,5-dihydro-2H-pyrrol-2-one], for which the IC50 is no more than 5 µM.
The value for `CCCC1C(C(C)=O)=C(O)C(=O)N1c1ccc(C)c(Cl)c1` (racemic) [Compound 76, 4-acetyl-1-(3-chloro-4-methylphenyl)-3-hydroxy-5-propyl-1,5-dihydro-2H-pyrrol-2-one] was no more than 5 µM.
Take `CCc1ccc(N2C(=O)C(O)=C(C(C)=O)C2C2CCCCC2)cc1` (racemic) [Compound 77, 4-acetyl-5-cyclohexyl-1-(4-ethylphenyl)-3-hydroxy-1,5-dihydro-2H-pyrrol-2-one]: the 50% inhibitory concentration (IC50) is no more than 5 µM.
On to `CC(=O)C1=C(O)C(=O)N(c2ccc(C)cc2)C1CC(C)(C)C` (racemic) [Compound 78, 4-acetyl-3-hydroxy-1-(4-methylphenyl)-5-neopentyl-1,5-dihydro-2H-pyrrol-2-one], for which the 50% inhibitory concentration (IC50) is no more than 5 µM.
For the molecule `CC(=O)C1=C(O)C(=O)N(c2ccc(C)c(C)c2)C1CC(C)(C)C` (racemic) [Compound 116, 4-acetyl-1-(3,4-dimethylphenyl)-3-hydroxy-5-neopentyl-1,5-dihydro-2H-pyrrol-2-one], the half-inhibitory concentration (IC50) was no more than 5 µM.
As to `CC(=O)C1=C(O)C(=O)N(c2ccc(Cl)cc2)C1C1CCCC1` (racemic) [Compound 118, 4-acetyl-1-(4-chlorophenyl)-5-cyclopentyl-3-hydroxy-1,5-dihydro-2H-pyrrol-2-one], the IC50 is no more than 5 µM.
The value for `CC(=O)C1=C(O)C(=O)N(c2ccc(Cl)cc2F)C1C1CCCC1` (racemic) [Compound 119, 4-acetyl-1-(4-chloro-2-fluorophenyl)-5-cyclopentyl-3-hydroxy-1,5-dihydro-2H-pyrrol-2-one] was no more than 5 µM; that for `CC(=O)C1=C(O)C(=O)N(c2c(F)cc(Cl)cc2F)C1C1CCCCC1` (racemic) [Compound 120, 4-acetyl-1-(4-chloro-2,6-difluorophenyl)-5-cyclohexyl-3-hydroxy-1,5-dihydro-2H-pyrrol-2-one] was no more than 5 µM; that for `CNC(=O)C1=C(O)C(=O)N(c2ccc(C)cc2)C1C1CCCCC1` (racemic) [Compound 126, 2-cyclohexyl-4-hydroxy-N-methyl-1-(4-methylphenyl)-5-oxo-2,5-dihydro-1H-pyrrole-3-carboxamide] was no more than 5 µM.
`C=C1CCC(C2C(C(C)=O)=C(O)C(=O)N2c2ccc(Cl)cc2)CC1` (racemic) [Compound 127, 4-acetyl-1-(4-chlorophenyl)-3-hydroxy-5-(4-methylenecyclohexyl)-1,5-dihydro-2H-pyrrol-2-one]: the IC50 was no more than 5 µM.
Take `CSC1=C(O)C(=O)N(c2ccc(Cl)cc2)C1C1CCCCC1` (racemic) [Compound 128, 1-(4-chlorophenyl)-5-cyclohexyl-3-hydroxy-4-(methylthio)-1,5-dihydro-2H-pyrrol-2-one]: the concentration for half-maximal inhibition (IC50) is no more than 5 µM.
As to `Cc1ccc(N2C(=O)C(O)=C(C(N)=O)C2C2CCCCC2)cc1` (racemic) [Compound 131, 2-cyclohexyl-4-hydroxy-1-(4-methylphenyl)-5-oxo-2,5-dihydro-1H-pyrrole-3-carboxamide], the 50% inhibitory concentration (IC50) was no more than 5 µM.
The value for `COC1CCC(C2C(C(C)=O)=C(O)C(=O)N2c2ccc(Cl)cc2)CC1` (racemic) [Compound 132, 4-acetyl-1-(4-chlorophenyl)-3-hydroxy-5-(4-methoxycyclohexyl)-1,5-dihydro-2H-pyrrol-2-one] was no more than 5 µM; that for `CC(=O)C1=C(O)C(=O)N(c2ccc(Cl)cc2)C1CC1CCCC1` (racemic) [Compound 134, 4-acetyl-1-(4-chlorophenyl)-5-(cyclopentylmethyl)-3-hydroxy-1,5-dihydro-2H-pyrrol-2-one] was no more than 5 µM.
For the molecule `CC(=O)C1=C(O)C(=O)N(c2ccc(Br)cc2F)C1C1CCCCC1` (racemic) [Compound 142, 4-acetyl-1-(4-bromo-2-fluorophenyl)-5-cyclohexyl-3-hydroxy-1,5-dihydro-2H-pyrrol-2-one], the half-maximal inhibitory concentration (IC50) is no more than 5 µM.
Take `CC(=O)C1=C(O)C(=O)N(c2ccc(Cl)cc2)C1C1CC(C)(C)CC(C)(C)C1` (racemic) [Compound 145, 4-acetyl-1-(4-chlorophenyl)-3-hydroxy-5-(3,3,5,5-tetramethylcyclohexyl)-1,5-dihydro-2H-pyrrol-2-one]: the 50% inhibitory concentration (IC50) is no more than 5 µM.
For `CC(=O)C1=C(O)C(=O)N(c2ccc(Cl)cc2)C1C1CCC(C)CC1` (racemic) [Compound 150, 4-acetyl-1-(4-chlorophenyl)-3-hydroxy-5-(4-methylcyclohexyl)-1,5-dihydro-2H-pyrrol-2-one], the IC50 was no more than 5 µM.
In the case of `C=C1CCC(C2C(C(C)=O)=C(O)C(=O)N2c2ccc(Cl)cc2F)CC1` (racemic) [Compound 153, 4-acetyl-1-(4-chloro-2-fluorophenyl)-3-hydroxy-5-(4-methylenecyclohexyl)-1,5-dihydro-2H-pyrrol-2-one], the half-inhibitory concentration (IC50) was no more than 5 µM.
For `CC(=O)C1=C(O)C(=O)N(c2c(F)cc(Br)cc2F)C1C1CCCCC1` (racemic) [Compound 154, 4-acetyl-1-(4-bromo-2,6-difluorophenyl)-5-cyclohexyl-3-hydroxy-1,5-dihydro-2H-pyrrol-2-one], the IC50 is no more than 5 µM.
Turning to `CC(=O)C1=C(S)C(=O)N(c2ccc(Cl)cc2)C1C1CCCCC1` (racemic) [Compound 157, 4-acetyl-1-(4-chlorophenyl)-5-cyclohexyl-3-mercapto-1,5-dihydro-2H-pyrrol-2-one], the IC50 was no more than 5 µM.
For `CC(=O)C1=C(S)C(=O)N(c2ccc(Cl)cc2F)C1C1CCCCC1` (racemic) [Compound 169, 4-acetyl-1-(4-chloro-2-fluorophenyl)-5-cyclohexyl-3-sulfanyl-1,5-dihydro-2H-pyrrol-2-one], the half-maximal inhibitory concentration (IC50) is no more than 5 µM.
`CC(=O)C1=C(O)C(=O)N(c2ccc(Cl)s2)C1C1CCCCC1` (racemic) [Compound 170, 4-acetyl-1-(5-chloro-2-thienyl)-5-cyclohexyl-3-hydroxy-1,5-dihydro-2H-pyrrol-2-one]: the concentration for half-maximal inhibition (IC50) is no more than 5 µM.
The value for `CC(=O)C1=C(O)C(=O)N(c2ccc(Cl)cn2)C1C1CCCCC1` (racemic) [Compound 172, 4-acetyl-1-(5-chloro-2-pyridinyl)-5-cyclohexyl-3-hydroxy-1,5-dihydro-2H-pyrrol-2-one] was no more than 5 µM; that for `CC(=O)C1=C(O)C(=O)N(c2c(F)cc(Cl)cc2F)[C@H]1C1CCCCC1` (stereo in doubt) [Compound 147, (S)-4-acetyl-1-(4-chloro-2,6-difluorophenyl)-5-cyclohexyl-3-hydroxy-1,5-dihydro-2H-pyrrol-2-one] was no more than 5 µM; that for `CC(=O)C1=C(O)C(=O)N(c2c(F)cc(Cl)cc2F)[C@@H]1C1CCCCC1` (stereo in doubt) [Compound 148, (R)-4-acetyl-1-(4-chloro-2,6-difluorophenyl)-5-cyclohexyl-3-hydroxy-1,5-dihydro-2H-pyrrol-2-one] was no more than 5 µM.
Consider `CCC(C)C(C)C1C(C(C)=O)=C(O)C(=O)N1c1ccc(C)cc1` (stereo not drawn) [Compound 19, 4-acetyl-5-(1,2-dimethylbutyl)-3-hydroxy-1-(4-methylphenyl)-1,5-dihydro-2H-pyrrol-2-one], for which the IC50 was no more than 5 µM.
Turning to `CC(=O)C1=C(O)C(=O)N(c2ccc(C)cc2)C1C1C=CCCC1` (stereo not drawn) [Compound 50, 4-acetyl-5-(cyclohex-2-en-1-yl)-3-hydroxy-1-(4-methylphenyl)-1,5-dihydro-2H-pyrrol-2-one], the IC50 was no more than 5 µM.
With `CC(=O)C1=C(O)C(=O)N(c2ccc(C)cc2)C1C1CC2C=CC1C2` (stereo not drawn) [Compound 79, 4-acetyl-5-bicyclo[2.2.1]hept-5-en-2-yl-3-hydroxy-1-(4-methylphenyl)-1,5-dihydro-2H-pyrrol-2-one], the 50% inhibitory concentration (IC50) is no more than 5 µM.
As to `CC(=O)C1=C(O)C(=O)N(c2ccc(Cl)cc2)C1C1CC2C=CC1C2` (stereo not drawn) [Compound 121, 4-acetyl-5-bicyclo[2.2.1]hept-5-en-2-yl-1-(4-chlorophenyl)-3-hydroxy-1,5-dihydro-2H-pyrrol-2-one], the IC50 is no more than 5 µM.
For `CC(=O)C1=C(O)C(=O)N(c2ccc(Cl)cc2F)[C@@H]1C1CCCC1` [Compound 129, (R)-4-acetyl-1-(4-chloro-2-fluorophenyl)-5-cyclopentyl-3-hydroxy-1,5-dihydro-2H-pyrrol-2-one], the 50% inhibitory concentration (IC50) was no more than 5 µM.
As for `CC(=O)C1=C(O)C(=O)N(c2ccc(Cl)c(C)c2)[C@@H]1C1CCCC1` [Compound 135, (R)-4-acetyl-1-(4-chloro-3-methylphenyl)-5-cyclopentyl-3-hydroxy-1,5-dihydro-2H-pyrrol-2-one], the IC50 is no more than 5 µM.
On to `CC(=O)C1=C(O)C(=O)N(c2ccc(F)cc2)[C@@H]1C1CCCC1` [Compound 137, (R)-4-acetyl-5-cyclopentyl-1-(4-fluorophenyl)-3-hydroxy-1,5-dihydro-2H-pyrrol-2-one], for which the concentration for half-maximal inhibition (IC50) is no more than 5 µM.
In the case of `CC(=O)C1=C(O)C(=O)N(c2ccc(F)cc2)[C@@H]1C1CCCCC1` [Compound 139, (R)-4-acetyl-5-cyclohexyl-1-(4-fluorophenyl)-3-hydroxy-1,5-dihydro-2H-pyrrol-2-one], the IC50 is no more than 5 µM.

Usually IC50 stands for the midpoint of a concentration-inhibition curve.
